According to publication PMC9270327 (Communications Biology, 2022):
Counter-ions that a name gives are not always drawn. Like-named read-outs stand apart in the source and are kept apart here.

Test system: SARS-CoV-2 Wuhan-Hu-1 D614G, Caco-2 cells
Format: cell-based
Conditions: for IC50: Caco-2 cells; for SARS-CoV-2 infection, Mean (0 nM = 100): Fig. 6b, D614G isolate
[1] = in-cell ELISA 2 days post infection

For `CN(C)C(=O)COC(=O)Cc1ccc(OC(=O)c2ccc(NC(=N)N)cc2)cc1` [CM, camostat mesylate, reference compound], the IC50 (2 days post infection) was 26.7 µM, the IC50 [1] was 26.7 µM and the “SARS-CoV-2 infection, Mean (0 nM = 100)” value (compound 32 nM) was 93.4834. For the same compound, the “SARS-CoV-2 infection, Mean (0 nM = 100)” value (compound 160 nM) was 88.1889, the “SARS-CoV-2 infection, Mean (0 nM = 100)” value (compound 800 nM) was 88.3001 and the “SARS-CoV-2 infection, Mean (0 nM = 100)” value (compound 4000 nM) was 93.3101. The “SARS-CoV-2 infection, Mean (0 nM = 100)” value (compound 20000 nM) was 68.3858 and the “SARS-CoV-2 infection, Mean (0 nM = 100)” value (compound 100000 nM) was 1.574.

ace-Arg-Pro-Arg-kbt [Compound 2] was tested, and the IC50 (2 days post infection) was 17.1 µM, the IC50 [1] was 17.1 µM and the “SARS-CoV-2 infection, Mean (0 nM = 100)” value (compound 32 nM) was 95.739. For the same compound, the “SARS-CoV-2 infection, Mean (0 nM = 100)” value (compound 160 nM) was 98.0747, the “SARS-CoV-2 infection, Mean (0 nM = 100)” value (compound 800 nM) was 97.5395 and the “SARS-CoV-2 infection, Mean (0 nM = 100)” value (compound 4000 nM) was 101.461. The “SARS-CoV-2 infection, Mean (0 nM = 100)” value (compound 20000 nM) was 23.4531 and the “SARS-CoV-2 infection, Mean (0 nM = 100)” value (compound 100000 nM) was 0.121.
